pIC50: −log10 of the molar value.
Test: Compound was tested for inhibition of gel-filtered platelet (GFP) aggregation induced by alpha-thrombin

Row | Compound | pIC50
1 | CN[C@H](Cc1ccccc1)C(=O)N1CCCC1C(=O)N[C@H](C=O)CCCNC(=N)N (stereo partly drawn) [(S)-1-((R)-2-Methylamino-3-phenyl-propionyl)-pyrrolidine-2-carboxylic acid ((S)-1-formyl-4-guanidino-butyl)-amide] | 7.08
2 | CN[C@H](Cc1ccccc1)C(=O)N1CCC[C@H]1C(=O)N[C@@H](CCCN=C(N)N)C(=O)c1nc2ccccc2s1 [RWJ-50353] | 7.49
